In patent publication US20250268260A1, “PESTICIDAL COMPOSITIONS INCLUDING AN ISOXAZOLINE COMPOUND” (SYNGENTA CROP PROTECTION AG, priority 2022, published 2025):

Columns and labels:
Assay type in all cases: in vivo
Diabrotica balteata = test: Corn seed treatment, Diabrotica balteata larvae mortality and plant damage (Example 2); conditions: 6 days after infestation, alone or combined
Method: The products FS400 and NOVODOR 3% FC were diluted with the addition of water to have the dose of active ingredient for 30 seeds plus an overage of 10%. These extra 10% were needed to compensate for losses of active ingredient during the seed treatment process. 30 seeds of corn were placed in a spheric glass beaker, and the application solution was added. The beaker was swung to mix the seeds with the solution. After drying, four seeds were sown per pot. 5 replicates per treatment were prepared. 14 days after sowing the pots were infested with 5 second instar larvae of Diabrotica balteata. 6 days after infestation (6DAI) the mortality of larvae and the damage on the plants was assessed.

Agriotes lineatus = test: Barley seed treatment, wireworm (Agriotes lineatus) corrected mortality and plant height (Example 3); conditions: for % Increase plant height in comparison to infested control (6DAI) observed / Plant height in cm: 6DAI; for Plant height in cm: barley, infested control 9.3, not infested control 14.9; for % Corrected mortality (20 DAI) observed: 20 days after infestation, barley seed treatment
Method: The products FS400 and NOVODOR 3% FC were diluted with the addition of water to have the dose of active ingredient for 30 seeds plusan overage of 10%. These extra 10% were needed to compensate for losses of active ingredient during the seed treatment process. 30 seeds of barley were placed in a spheric glass beaker, and the application solution was added. The beaker was swung to mix the seeds with the solution. After drying two seeds were sown per pot. 10 replicates per treatment were prepared. 5 days after sowing the pots were infested with 10 wireworms (Agriotes lineatus, approx. 20 mm length). 20 days after infestation (20DAI), the corrected mortality of the wireworms was assessed based on the control treatment. 6 days after infestation (6DAI) the plant height was measured.

Spodoptera littoralis = test: Foliar spray on soybean plants, Spodoptera littoralis larvae mortality (Example 1); conditions: isocycloseram 0.4 ppm (0.2 g AI/ha), Bt1 45 ppm (22.5 g AI/ha), alone or combined, second instar larvae; for % mortality (3DAA) Observed Results: 3 days after application; for % mortality (5DAA) Observed Results: 5 days after application
Method: The products VIRANTRA SC400 and COSTAR WG 18 are diluted with the addition of water to obtain the concentrations of active ingredients gathered in Table 1 and Table 2, and were applied on soybean plants (planted in pots; ˜8 plants per pot, 5 pots per treatment), in using a turn table application machine (500 l/ha). After drying 10 soybean plants were cut and placed in a petri dish (diameter: 14.5 cm) containing 3 wet filter papers (4 ml water); 3 replicates per concentration were done. Plants were infested with 10 Spodoptera littoralis larvae (second instar of larvae) and petri dish was covered with a round cotton tissue and closed with a plastic lid. Three and five days after application mortality was assessed.

[1] = isocycloseram 0.01 mg/seed (3 g/100 kg seeds), Bt2 0.03 mg/seed (10 g/100 kg seeds)
[2] = isocycloseram 0.03 mg/seed (10 g/100 kg seeds), Bt2 0.1 mg/seed (30 g/100 kg seeds)
[3] = Bt2 alone 5 μg/seed (120 g/100 kg seed)
[4] = isocycloseram 0.25 μg/seed (6 g/100 kg seed), alone or + Bt2 5 μg/seed
[5] = isocycloseram 1.25 μg/seed (24 g/100 kg seed), alone or + Bt2 5 μg/seed

What does the source list for “Bacillus thuringiensis var. tenebrionis strain NB-176 [Bt2]”?
% Mortality (6DAI) observed (Diabrotica balteata; [1]): 0%; % Plant damage reduction (6DAI) observed (Diabrotica balteata; [1]): −6%; % Mortality (6DAI) observed (Diabrotica balteata; [2]): 0%; % Plant damage reduction (6DAI) observed (Diabrotica balteata; [2]): 11%; % Increase plant height in comparison to infested control (6DAI) observed (Agriotes lineatus; [3]): 0%; Plant height in cm (Agriotes lineatus; [3]): 9 cm; % Corrected mortality (20 DAI) observed (Agriotes lineatus; [3]): 0%

What does the source list for `CCN1OCC(NC(=O)c2ccc(C3=NOC(c4cc(Cl)c(F)c(Cl)c4)(C(F)(F)F)C3)cc2C)C1=O` (stereo not drawn) [isocycloseram]?
% mortality (3DAA) Observed Results (Spodoptera littoralis): 0%; % mortality (5DAA) Observed Results (Spodoptera littoralis): 7%; % Mortality (6DAI) observed (Diabrotica balteata; [1]): 33%; % Plant damage reduction (6DAI) observed (Diabrotica balteata; [1]): 33%; % Mortality (6DAI) observed (Diabrotica balteata; [2]): 58%; % Plant damage reduction (6DAI) observed (Diabrotica balteata; [2]): 50%; Plant height in cm (Agriotes lineatus; [4]): 10.2 cm; Plant height in cm (Agriotes lineatus; [5]): 10.6 cm; % Increase plant height in comparison to infested control (6DAI) observed (Agriotes lineatus; [4]): 10%; % Increase plant height in comparison to infested control (6DAI) observed (Agriotes lineatus; [5]): 14%; % Corrected mortality (20 DAI) observed (Agriotes lineatus; isocycloseram 0.25 μg/seed (6 g/100 kg seed), alone or + Bt2 5 μg/seed (120 g/100 kg seed)): 17%; % Corrected mortality (20 DAI) observed (Agriotes lineatus; isocycloseram 1.25 μg/seed (24 g/100 kg seed), alone or + Bt2 5 μg/seed (120 g/100 kg seed)): 25%

Which results are given for “Bacillus thuringiensis var. kurstaki strain SA-12 [Bt1]”?
% mortality (3DAA) Observed Results (Spodoptera littoralis): 20%; % mortality (5DAA) Observed Results (Spodoptera littoralis): 30%
